# Reference: patent publication US20030134842A1, “METHODS FOR THE TREATMENT OR PREVENTION OF INFLAMMATORY DISEASES CHARACTERIZED BY ABNORMAL CELL PROLIFERATION” (priority 1997, published 2003)
# Key:
# [1] = tested on: MM-RU human melanoma cells; details: SCID mice inoculated with MM-RU human melanoma cells, daily administration; cited from earlier work
# Gardos channel = target: T1, Gardos channel (Homo sapiens, UniProt O15554); details: patients with sickle cell disease, oral; cited from earlier work
# T1 construct: reduces erythrocyte dehydration in patients with sickle cell disease; host or cells: erythrocytes of sickle cell patients, in vivo
# red cell Gardos channel = target: T2, red cell Gardos channel (Mus musculus, UniProt O89109); details: SAD mouse, oral administration; cited from earlier work
# T2 construct: host or cells: red cells of the SAD mouse, in vivo
# [2] = tested on: NIH 3T3 mouse fibroblast cells; test: Mitogenic assay (mitogen-induced cell proliferation); type: cell-based; details: 10 µM compound, NIH 3T3 mouse fibroblast cells
# T1 sequence (O15554 whole entry): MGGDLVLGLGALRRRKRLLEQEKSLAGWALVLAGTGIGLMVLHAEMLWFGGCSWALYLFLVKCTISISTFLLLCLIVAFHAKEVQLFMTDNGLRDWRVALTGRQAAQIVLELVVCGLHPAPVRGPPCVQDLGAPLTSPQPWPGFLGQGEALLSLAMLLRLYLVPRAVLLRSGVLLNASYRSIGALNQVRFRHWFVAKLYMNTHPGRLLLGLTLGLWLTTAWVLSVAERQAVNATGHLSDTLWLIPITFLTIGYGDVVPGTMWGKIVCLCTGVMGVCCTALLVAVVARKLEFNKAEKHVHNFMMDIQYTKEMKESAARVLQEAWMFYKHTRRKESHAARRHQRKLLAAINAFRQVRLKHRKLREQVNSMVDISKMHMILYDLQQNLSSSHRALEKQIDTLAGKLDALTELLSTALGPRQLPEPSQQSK
# T2 sequence (O89109 whole entry): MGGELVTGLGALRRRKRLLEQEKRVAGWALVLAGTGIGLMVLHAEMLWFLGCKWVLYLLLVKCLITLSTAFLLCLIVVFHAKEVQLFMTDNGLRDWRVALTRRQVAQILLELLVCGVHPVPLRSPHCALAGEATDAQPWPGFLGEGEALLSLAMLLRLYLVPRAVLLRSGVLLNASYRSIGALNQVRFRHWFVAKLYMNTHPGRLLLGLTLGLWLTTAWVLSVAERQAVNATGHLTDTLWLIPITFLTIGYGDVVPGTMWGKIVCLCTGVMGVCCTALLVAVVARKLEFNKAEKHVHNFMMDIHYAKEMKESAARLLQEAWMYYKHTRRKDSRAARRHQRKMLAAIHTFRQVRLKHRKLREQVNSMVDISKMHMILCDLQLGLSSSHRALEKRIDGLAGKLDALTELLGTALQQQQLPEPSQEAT
smiles,measurement,setting,value
Clc1ccccc1C(c1ccccc1)(c1ccccc1)n1ccnc1 [Clotrimazole],number of lung metastases,[1],significant reduction in the number of lung metastases observed
same,Gardos channel inhibition and erythrocyte dehydration,Gardos channel,induces inhibition of the Gardos channel and reduces erythrocyte dehydration
same,"red cell Gardos channel, K+ content, MCHC, cell density",red cell Gardos channel,"inhibition of the red cell Gardos channel, increased red cell K^+ content, a decreased mean cell hemoglobin concentration (MCHC) and decreased cell density"
same,Mitogenic Assay Inhibition,[2],93.0%
